Measured values from the supplement of paper PMC10331698.
± gives the standard deviation of the averaged measurements.

Experiments:
Test in all cases: level (log10 ratio to DMSO vehicle control); higher = higher biomarker level / cell amount than vehicle control
Conditions in all cases: in DMSO
Perfluoro-1-iodohexane = compound: FC(F)(F)C(F)(F)C(F)(F)C(F)(F)C(F)(F)C(F)(F)I [Perfluoro-1-iodohexane]
Procedure: (§1)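 BioMAP Diversity Plus panel of 12 human primary cell co-culture systems (3C, 4H, LPS, SAg, BT, BF4T, BE3C, CASM3C, HDF3CGF, KF3CT, MyoF, Mphg). Compounds were added 1 h before stimulation and left for 24 h (MyoF 48 h; BT 72 h for soluble read-outs or 6 d for IgG). Biomarkers were read by ELISA, cytotoxicity by SRB, PBMC viability and proliferation by Alamar Blue. Each well value was divided by the mean of 8 DMSO control wells on the same plate and log10 transformed; duplicate blinded samples were tested at 4 concentrations.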

[1] = compound: OCC(F)(F)OC(F)(F)C(F)(F)OC(F)(F)CO [1H,1H,8H,8H-Perfluoro-3,6-dioxaoctane-1,8-diol]
Procedure: as §1

[2] = compound: O=C(O)C(F)(F)C(F)(F)C(F)F [4H-Perfluorobutanoic acid]
Procedure: as §1

[3] = compound: FC(F)(F)C(F)(F)C(F)(F)C(F)(F)C(F)(F)CCI [1-Iodo-1H,1H,2H,2H-perfluoroheptane]
Procedure: as §1

[4] = compound: NCC(F)(F)C(F)(F)C(F)(F)C(F)(F)C(F)(F)C(F)(F)C(F)(F)F [1H,1H-Perfluorooctylamine]
Procedure: as §1

Perfluoropentanoic acid = compound: O=C(O)C(F)(F)C(F)(F)C(F)(F)C(F)(F)F [Perfluoropentanoic acid]
Procedure: as §1

[5] = compound: C=C(C)C(=O)OCCC(F)(F)C(F)(F)C(F)(F)C(F)(F)C(F)(C(F)(F)F)C(F)(F)F [(Perfluoro-5-methylhexyl)ethyl 2-methylprop-2-enoate]
Procedure: as §1

Row | Test System | level (log10) (Perfluoro-1-iodohexane; 6700 nM) | level (log10) (Perfluoro-1-iodohexane; 20000 nM) | level (log10) (Perfluoro-1-iodohexane; 60000 nM) | level (log10) ([1]; 6700 nM) | level (log10) ([1]; 20000 nM) | level (log10) ([1]; 60000 nM) | level (log10) ([2]; 6700 nM) | level (log10) ([2]; 20000 nM) | level (log10) ([2]; 60000 nM) | level (log10) ([3]; 6700 nM) | level (log10) ([3]; 20000 nM) | level (log10) ([3]; 60000 nM) | level (log10) ([4]; 6700 nM) | level (log10) ([4]; 20000 nM) | level (log10) ([4]; 60000 nM) | level (log10) (Perfluoropentanoic acid; 6700 nM) | level (log10) (Perfluoropentanoic acid; 20000 nM) | level (log10) (Perfluoropentanoic acid; 60000 nM) | level (log10) ([5]; 6700 nM) | level (log10) ([5]; 20000 nM)
1 | LPS:M-CSF | 0.0135 ± 0.019 | -0.0055 ± 0.05 | -0.003 ± 0.025 | -0.015 ± 0.0042 | -0.018 ± 0.031 | 0.007 ± 0.067 | -0.001 ± 0.042 | -0.007 ± 0.014 | -0.003 ± 0.035 | -0.0145 ± 0.0092 | -0.0185 ± 0.0035 | -0.031 ± 0.017 | 0.008 ± 0.024 | -0.015 ± 0.03 | -0.0235 ± 0.025 | -0.031 ± 0.024 | -0.061 ± 0.11 | -0.0385 ± 0.11 | 0.022 ± 0.02 | 0.006 ± 0.0042
2 | BF4T:CCL2/MCP-1 | -0.002 ± 0.025 | -0.024 ± 0.025 | -0.0315 ± 0.028 | 0.015 ± 0.028 | 0.012 ± 0.027 | 0.0085 ± 0.00071 | -0.012 ± 0.0085 | 0.004 ± 0.011 | 0.0475 ± 0.069 | -0.008 ± 0.025 | -0.044 ± 0.044 | -0.055 ± 0.02 | 0.005 ± 0.02 | -0.013 ± 0.0071 | -0.009 ± 0.033 | 0.004 ± 0.047 | -0.0035 ± 0.052 | -0.0275 ± 0.025 | 0.012 ± 0.011 | 0.0275 ± 0.005
3 | SAg:CD69 | -0.0155 ± 0.033 | -0.017 ± 0.024 | 0.006 ± 0.0014 | 0.0065 ± 0.0064 | 0.015 ± 0.016 | -0.0145 ± 0.013 | -0.0145 ± 0.015 | -0.0165 ± 0.015 | 0.005 ± 0.027 | -0.025 ± 0.011 | -0.037 ± 0.0042 | -0.036 ± 0.011 | -0.0095 ± 0.0092 | 0.0005 ± 0.0035 | 0.006 ± 0.016 | 0.002 ± 0.016 | -0.0155 ± 0.028 | -0.0165 ± 0.033 | -0.0095 ± 0.015 | -0.0335 ± 0.033
4 | BF4T:SRB | -0.006 ± 0.0085 | -0.011 ± 0.011 | -0.0135 ± 0.016 | -0.0045 ± 0.013 | -0.0065 ± 0.005 | -0.0055 ± 0.0021 | 0.0005 ± 0.0021 | -0.008 ± 0.0057 | -0.006 ± 0.0042 | -0.003 ± 0.0014 | -0.0035 ± 0.00071 | 0.006 ± 0.016 | -0.002 ± 0.0042 | -0.005 ± 0.013 | -0.0005 ± 0.016 | -0.011 ± 0.0085 | -0.008 ± 0.0071 | 0.001 ± 0.0099 | -0.016 ± 0.011 | -0.007 ± 0.025
5 | BF4T:tPA | 0.0015 ± 0.005 | -0.0065 ± 0.018 | 0.036 ± 0.047 | 0.0015 ± 0.021 | 0.003 ± 0.013 | 0.0045 ± 0.0078 | -0.002 ± 0.037 | 0.003 ± 0.028 | 0.0475 ± 0.022 | -0.0055 ± 0.012 | -0.003 ± 0.011 | 0.0065 ± 0.012 | -0.017 ± 0.023 | -0.027 ± 0.021 | 0.003 ± 0.014 | -0.0295 ± 0.005 | -0.0215 ± 0.029 | -0.009 ± 0.061 | -0.002 ± 0.0057 | -0.037 ± 0.031
6 | BT:sTNF-alpha | 0.009 ± 0.031 | -0.0095 ± 0.14 | -0.0015 ± 0.16 | 0.17 ± 0.053 | 0.023 ± 0.19 | -0.036 ± 0.1 | -0.0585 ± 0.022 | -0.055 ± 0.0071 | -0.048 ± 0.13 | -0.02 ± 0.038 | 0.063 ± 0.055 | -0.114 ± 0.052 | 0.0435 ± 0.1 | 0.057 ± 0.023 | -0.0375 ± 0.076 | -0.0575 ± 0.25 | 0.0875 ± 0.012 | 0.105 ± 0.04 | 0.0485 ± 0.1 | 0.0945 ± 0.03
7 | SAg:CD38 | -0.059 ± 0.15 | -0.01 ± 0.02 | 0.0005 ± 0.076 | -0.006 ± 0.02 | -0.0105 ± 0.013 | -0.0015 ± 0.0021 | 0.008 ± 0.028 | 0.0195 ± 0.0021 | 0.017 ± 0.021 | -0.012 ± 0.0042 | 0.007 ± 0.0042 | -0.0125 ± 0.016 | 0.0005 ± 0.012 | -0.0155 ± 0.00071 | 0.0065 ± 0.005 | 0.003 ± 0.017 | 0.0015 ± 0.011 | 0.002 ± 0.0057 | -0.011 ± 0.016 | -0.0055 ± 0.015
8 | LPS:CD69 | -0.0185 ± 0.0064 | -0.0025 ± 0.0035 | -0.032 ± 0.0099 | 0.0335 ± 0.083 | 0.033 ± 0.042 | 0.0025 ± 0.029 | 0.024 ± 0.035 | 0.02 ± 0.034 | 0.028 ± 0.028 | -0.015 ± 0.0071 | -0.015 | -0.019 ± 0.0057 | -0.045 ± 0.017 | -0.0255 ± 0.036 | 0.002 ± 0.0071 | 0.007 ± 0.011 | -0.0305 ± 0.013 | -0.0135 ± 0.083 | -0.019 ± 0.069 | -0.0145 ± 0.08
